US20180024136A1, “Development of ABCG2-Sensitive Fluorescent Probe For Isolation of ABCG2low Neural Stem/Progenitor Cells” (National University of Singapore, priority 2015, published 2018)

Assay: Spectroscopic properties of CF library (absorbance, emission, quantum yield, extinction coefficient)
Assay type: physicochemical
Conditions: 100 μM in ethanol; for QY (Φ): reference fluorescein
Experimental: All the chemicals and solvents were purchased from Sigma Aldrich, Alfa Aesar, Fluka, MERCK, Tocris or Acros, and used without further purification. Normal phase purifications were carried out using Merck Silica Gel 60 (particle size: 0.040-0.063 mm, 230-400 mesh). Analytical characterization was performed on a HPLC-MS (Agilent-1200 series) with a DAD detector and a single quadrupole mass spectrometer (6130 series) with an ESI probe. ^1H-NMR and ^13C-NMR spectra were recorded on Bruker Avance 300 MHz NMR spectrometers, and chemical shifts are expressed in parts per million (ppm) and coupling constants are reported as a J value in Hertz (Hz). High resolution mass spectrometry (HRMS) data was recorded on a Micro mass VG 7035 (Mass Spectrometry Laboratory at National University of Singapore (NUS)). Spectroscopic and quantum yield data were measured on spectroscopic measurements, performed on a fluorometer and UV/VIS instrument, Synergy 4 of Bioteck Company. The slit width was 1 nm for both excitation and emission, and the data analysis was performed using GraphPrism 5.0.

SMILES: CCCCCN(CCCCC)C(=O)c1ccc(-c2c3cc(Cl)c(=O)cc-3oc3cc(O)c(Cl)cc23)cc1 [CF-G3]
- Abs (nm): 520 nm
- Em (nm): 552 nm
- QY (Φ): 0.63

SMILES: O=C(NCCc1ccccc1-c1ccccc1)c1ccc(-c2c3cc(Cl)c(=O)cc-3oc3cc(O)c(Cl)cc23)cc1 [CF-H9]
- Abs (nm): 520 nm
- Em (nm): 558 nm
- QY (Φ): 0.30

SMILES: Cc1cccc(CN(C)C(=O)c2ccc(-c3c4cc(Cl)c(=O)cc-4oc4cc(O)c(Cl)cc34)cc2)c1 [CF-D7]
- Abs (nm): 520 nm
- Em (nm): 555 nm
- QY (Φ): 0.54

SMILES: CCCCCCCCCCCCN(C)C(=O)c1ccc(-c2c3cc(Cl)c(=O)cc-3oc3cc(O)c(Cl)cc23)cc1 [CF-G2]
- Abs (nm): 520 nm
- Em (nm): 553 nm
- QY (Φ): 0.85

SMILES: COc1ccc(CCNC(=O)c2ccc(-c3c4cc(Cl)c(=O)cc-4oc4cc(O)c(Cl)cc34)cc2)cc1 [CF-C5]
- Abs (nm): 520 nm
- Em (nm): 558 nm
- QY (Φ): 0.63

SMILES: O=C(NCc1c(Cl)cccc1Cl)c1ccc(-c2c3cc(Cl)c(=O)cc-3oc3cc(O)c(Cl)cc23)cc1 [CF-E2]
- Abs (nm): 520 nm
- Em (nm): 557 nm
- QY (Φ): 0.63

SMILES: CCCCCCNC(=O)c1ccc(-c2c3cc(Cl)c(=O)cc-3oc3cc(O)c(Cl)cc23)cc1 [CF-H4]
- Abs (nm): 520 nm
- Em (nm): 556 nm
- QY (Φ): 0.63

SMILES: CC1CCC(NC(=O)c2ccc(-c3c4cc(Cl)c(=O)cc-4oc4cc(O)c(Cl)cc34)cc2)CC1 (stereo not drawn) [CF-H5]
- Abs (nm): 520 nm
- Em (nm): 557 nm
- QY (Φ): 0.67

SMILES: CCCNC(=O)c1ccc(-c2c3cc(Cl)c(=O)cc-3oc3cc(O)c(Cl)cc23)cc1 [CF-D9]
- Abs (nm): 520 nm
- Em (nm): 558 nm
- QY (Φ): 0.25

SMILES: CCC(C)NC(=O)c1ccc(-c2c3cc(Cl)c(=O)cc-3oc3cc(O)c(Cl)cc23)cc1 (stereo not drawn) [CF-G8]
- Abs (nm): 520 nm
- Em (nm): 556 nm
- QY (Φ): 0.29

SMILES: CCCCCCN(C)C(=O)c1ccc(-c2c3cc(Cl)c(=O)cc-3oc3cc(O)c(Cl)cc23)cc1 [CF-F10]
- Abs (nm): 520 nm
- Em (nm): 559 nm
- QY (Φ): 0.35

SMILES: CCCCCCCCNC(=O)c1ccc(-c2c3cc(Cl)c(=O)cc-3oc3cc(O)c(Cl)cc23)cc1 [CF-C3]
- Abs (nm): 520 nm
- Em (nm): 559 nm
- QY (Φ): 0.37

SMILES: CCCCC(CC)CNC(=O)c1ccc(-c2c3cc(Cl)c(=O)cc-3oc3cc(O)c(Cl)cc23)cc1 (stereo not drawn) [CF-B9]
- Abs (nm): 520 nm
- Em (nm): 558 nm
- QY (Φ): 0.60

SMILES: CC1CCCCC1NC(=O)c1ccc(-c2c3cc(Cl)c(=O)cc-3oc3cc(O)c(Cl)cc23)cc1 (stereo not drawn) [CF-C7]
- Abs (nm): 520 nm
- Em (nm): 558 nm
- QY (Φ): 0.42

SMILES: CN(CCc1ccccc1)C(=O)c1ccc(-c2c3cc(Cl)c(=O)cc-3oc3cc(O)c(Cl)cc23)cc1 [CF-D4]
- Abs (nm): 520 nm
- Em (nm): 555 nm
- QY (Φ): 0.69

SMILES: CCCCCCCCCCCCCCNC(=O)c1ccc(-c2c3cc(Cl)c(=O)cc-3oc3cc(O)c(Cl)cc23)cc1 [CF-A2]
- Abs (nm): 520 nm
- Em (nm): 558 nm
- QY (Φ): 0.42

SMILES: CCOC(=O)N1CCC(NC(=O)c2ccc(-c3c4cc(Cl)c(=O)cc-4oc4cc(O)c(Cl)cc34)cc2)CC1 [CF-G6]
- Abs (nm): 520 nm
- Em (nm): 556 nm
- QY (Φ): 0.29

SMILES: O=C(c1ccc(-c2c3cc(Cl)c(=O)cc-3oc3cc(O)c(Cl)cc23)cc1)N1CCCC1 [CF-B7]
- Abs (nm): 520 nm
- Em (nm): 556 nm
- QY (Φ): 0.70

SMILES: CC1CCCCN1C(=O)c1ccc(-c2c3cc(Cl)c(=O)cc-3oc3cc(O)c(Cl)cc23)cc1 (stereo not drawn) [CF-H6]
- Abs (nm): 520 nm
- Em (nm): 553 nm
- QY (Φ): 0.65

SMILES: CCCCN(CC)C(=O)c1ccc(-c2c3cc(Cl)c(=O)cc-3oc3cc(O)c(Cl)cc23)cc1 [CF-B4]
- Abs (nm): 520 nm
- Em (nm): 556 nm
- QY (Φ): 0.90
